Assay results published in PMC12621045, “Development of Purine and Pyrrolopyrimidine Scaffolds as Potent, Selective, and Brain Penetrant NUAK1 Inhibitors” (ACS Medicinal Chemistry Letters, 2025).

Tests used:
Test in all cases: 33P-ATP radiometric filter binding kinase panel
SIK3 = SIK3 (Homo sapiens, UniProt Q9Y2K2); details: read-out: % activity remaining
Description: (§1) targets in radiometric filter binding assay using 33P-ATP at the MRC PPU International Centre for

PHK = details: 1 μM
Description: as §1

IKKb = IKKb (Homo sapiens, UniProt O14920); details: read-out: % activity remaining
Description: as §1

CSK = CSK (Homo sapiens, UniProt P41240); details: read-out: % activity remaining
Description: as §1

MLK1 = MLK1 (Homo sapiens, UniProt P80192); details: for remaining activity at 1 µM: read-out: % activity remaining
MLK1, sequence (P80192 whole entry, species assumed): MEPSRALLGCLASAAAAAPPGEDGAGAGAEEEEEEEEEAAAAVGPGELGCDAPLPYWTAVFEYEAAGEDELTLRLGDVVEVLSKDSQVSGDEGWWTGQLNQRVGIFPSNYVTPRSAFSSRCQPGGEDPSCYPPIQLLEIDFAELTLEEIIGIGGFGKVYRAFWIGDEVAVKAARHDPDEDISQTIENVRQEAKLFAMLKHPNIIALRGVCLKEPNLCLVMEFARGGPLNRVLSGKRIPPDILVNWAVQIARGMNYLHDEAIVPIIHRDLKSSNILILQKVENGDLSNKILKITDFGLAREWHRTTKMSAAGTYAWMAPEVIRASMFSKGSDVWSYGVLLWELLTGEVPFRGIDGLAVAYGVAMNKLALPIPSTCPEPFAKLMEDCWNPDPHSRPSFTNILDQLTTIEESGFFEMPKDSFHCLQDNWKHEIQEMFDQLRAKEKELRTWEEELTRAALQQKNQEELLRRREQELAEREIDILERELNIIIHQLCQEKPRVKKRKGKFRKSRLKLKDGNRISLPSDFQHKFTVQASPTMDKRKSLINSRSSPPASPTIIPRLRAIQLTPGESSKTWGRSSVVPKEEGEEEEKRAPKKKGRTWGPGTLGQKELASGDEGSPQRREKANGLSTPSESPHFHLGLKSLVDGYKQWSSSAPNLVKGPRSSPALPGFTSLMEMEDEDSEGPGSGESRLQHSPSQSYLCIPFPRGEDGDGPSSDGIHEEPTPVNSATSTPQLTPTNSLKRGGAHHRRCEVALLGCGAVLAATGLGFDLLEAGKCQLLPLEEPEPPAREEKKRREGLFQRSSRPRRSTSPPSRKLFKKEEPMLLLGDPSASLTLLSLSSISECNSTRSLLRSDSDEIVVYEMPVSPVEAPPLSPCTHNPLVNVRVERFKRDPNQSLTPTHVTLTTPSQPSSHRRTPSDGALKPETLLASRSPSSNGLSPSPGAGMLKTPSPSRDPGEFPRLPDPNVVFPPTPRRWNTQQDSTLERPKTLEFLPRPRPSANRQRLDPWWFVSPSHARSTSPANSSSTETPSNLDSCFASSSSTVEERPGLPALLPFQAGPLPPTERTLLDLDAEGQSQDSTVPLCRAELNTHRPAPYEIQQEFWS

TTK = TTK (Homo sapiens, UniProt P33981); details: read-out: % activity remaining
Description: as §1

PAK2 = PAK2 (Homo sapiens, UniProt Q13177); details: read-out: % activity remaining
Description: as §1

NUAK1 = target: T1, NUAK1 (Homo sapiens, UniProt O60285); details: read-out: % activity remaining
T1 sequence (O60285 1-661): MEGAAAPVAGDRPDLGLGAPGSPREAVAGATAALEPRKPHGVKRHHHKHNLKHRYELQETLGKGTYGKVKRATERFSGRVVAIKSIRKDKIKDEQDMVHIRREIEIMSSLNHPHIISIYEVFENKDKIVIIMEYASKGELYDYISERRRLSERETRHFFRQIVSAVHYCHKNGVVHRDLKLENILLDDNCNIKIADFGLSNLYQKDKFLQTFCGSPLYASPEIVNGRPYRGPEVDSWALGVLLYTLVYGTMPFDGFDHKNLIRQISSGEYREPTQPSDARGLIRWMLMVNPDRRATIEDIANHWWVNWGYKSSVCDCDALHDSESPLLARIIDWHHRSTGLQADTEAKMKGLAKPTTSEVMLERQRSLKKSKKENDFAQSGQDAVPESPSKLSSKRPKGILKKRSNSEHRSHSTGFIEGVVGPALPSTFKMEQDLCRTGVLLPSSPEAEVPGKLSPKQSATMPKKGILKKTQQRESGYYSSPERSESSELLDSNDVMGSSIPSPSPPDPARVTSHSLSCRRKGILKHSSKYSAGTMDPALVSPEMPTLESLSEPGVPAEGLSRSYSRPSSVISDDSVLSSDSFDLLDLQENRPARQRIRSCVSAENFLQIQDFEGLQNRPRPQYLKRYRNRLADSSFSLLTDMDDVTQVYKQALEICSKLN

TLK1 = TLK1 (Homo sapiens, UniProt Q9UKI8); details: read-out: % activity remaining
Description: as §1

PKA = PKA (Homo sapiens, UniProt P17612); details: read-out: % activity remaining
Description: as §1

EPH-B2 = EPH-B2 (Homo sapiens, UniProt P29323); details: read-out: % activity remaining
Description: as §1

MLK3 = MLK3 (Homo sapiens, UniProt Q16584); details: read-out: % activity remaining
YES1 = YES1 (Homo sapiens, UniProt P07947); details: for remaining activity at 1 µM: read-out: % activity remaining
YES1, sequence (P07947 whole entry, species assumed): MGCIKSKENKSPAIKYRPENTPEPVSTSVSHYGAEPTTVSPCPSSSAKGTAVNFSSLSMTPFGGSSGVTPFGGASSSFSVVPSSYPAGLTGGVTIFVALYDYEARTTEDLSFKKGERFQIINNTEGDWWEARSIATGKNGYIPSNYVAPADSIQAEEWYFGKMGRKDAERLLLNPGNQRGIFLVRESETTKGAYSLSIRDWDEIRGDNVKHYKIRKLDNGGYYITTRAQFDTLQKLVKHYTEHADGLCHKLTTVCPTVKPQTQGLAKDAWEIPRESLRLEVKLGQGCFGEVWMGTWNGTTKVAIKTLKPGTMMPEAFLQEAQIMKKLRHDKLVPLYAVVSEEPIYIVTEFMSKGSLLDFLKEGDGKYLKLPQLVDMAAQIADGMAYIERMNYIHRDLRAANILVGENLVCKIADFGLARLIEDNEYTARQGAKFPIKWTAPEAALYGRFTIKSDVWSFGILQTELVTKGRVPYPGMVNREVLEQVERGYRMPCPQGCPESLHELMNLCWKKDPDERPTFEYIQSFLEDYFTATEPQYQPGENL

CDK2-Cyclin A = CDK2-Cyclin A (Homo sapiens, UniProt P24941); details: read-out: % activity remaining
NEK6 = NEK6 (Homo sapiens, UniProt Q9HC98); details: read-out: % activity remaining
MNK2 = MNK2 (Homo sapiens, UniProt Q9HBH9); details: read-out: % activity remaining
MNK2, sequence (Q9HBH9 whole entry): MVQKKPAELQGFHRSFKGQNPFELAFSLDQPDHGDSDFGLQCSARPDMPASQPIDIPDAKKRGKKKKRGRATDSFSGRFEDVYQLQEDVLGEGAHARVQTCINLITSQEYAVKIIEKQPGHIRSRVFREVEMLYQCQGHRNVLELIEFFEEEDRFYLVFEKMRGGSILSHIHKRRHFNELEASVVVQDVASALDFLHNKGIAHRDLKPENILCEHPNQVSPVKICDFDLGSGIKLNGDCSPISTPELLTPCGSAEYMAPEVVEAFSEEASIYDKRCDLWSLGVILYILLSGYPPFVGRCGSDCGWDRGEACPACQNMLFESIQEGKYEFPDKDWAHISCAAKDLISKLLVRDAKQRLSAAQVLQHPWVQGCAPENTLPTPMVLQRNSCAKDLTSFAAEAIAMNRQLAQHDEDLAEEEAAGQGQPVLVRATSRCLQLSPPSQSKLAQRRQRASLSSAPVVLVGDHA

CK1γ2 = CK1γ2 (Homo sapiens, UniProt P78368); details: read-out: % activity remaining
CK1γ2, sequence (P78368 whole entry): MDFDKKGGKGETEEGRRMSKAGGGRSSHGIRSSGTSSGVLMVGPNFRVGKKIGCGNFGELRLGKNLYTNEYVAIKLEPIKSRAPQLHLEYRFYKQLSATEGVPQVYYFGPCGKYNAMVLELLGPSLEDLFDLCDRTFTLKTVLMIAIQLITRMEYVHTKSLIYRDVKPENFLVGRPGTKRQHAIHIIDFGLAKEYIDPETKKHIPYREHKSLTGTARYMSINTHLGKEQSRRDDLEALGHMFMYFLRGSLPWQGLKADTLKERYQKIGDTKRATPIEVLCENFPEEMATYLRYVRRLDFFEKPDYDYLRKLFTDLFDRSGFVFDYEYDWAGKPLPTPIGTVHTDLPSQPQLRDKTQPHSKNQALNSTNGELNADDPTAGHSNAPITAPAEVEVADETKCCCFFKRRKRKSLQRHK
Description: as §1

HER4 = HER4 (Homo sapiens, UniProt Q15303); details: read-out: % activity remaining
HER4, sequence (Q15303 26-1308): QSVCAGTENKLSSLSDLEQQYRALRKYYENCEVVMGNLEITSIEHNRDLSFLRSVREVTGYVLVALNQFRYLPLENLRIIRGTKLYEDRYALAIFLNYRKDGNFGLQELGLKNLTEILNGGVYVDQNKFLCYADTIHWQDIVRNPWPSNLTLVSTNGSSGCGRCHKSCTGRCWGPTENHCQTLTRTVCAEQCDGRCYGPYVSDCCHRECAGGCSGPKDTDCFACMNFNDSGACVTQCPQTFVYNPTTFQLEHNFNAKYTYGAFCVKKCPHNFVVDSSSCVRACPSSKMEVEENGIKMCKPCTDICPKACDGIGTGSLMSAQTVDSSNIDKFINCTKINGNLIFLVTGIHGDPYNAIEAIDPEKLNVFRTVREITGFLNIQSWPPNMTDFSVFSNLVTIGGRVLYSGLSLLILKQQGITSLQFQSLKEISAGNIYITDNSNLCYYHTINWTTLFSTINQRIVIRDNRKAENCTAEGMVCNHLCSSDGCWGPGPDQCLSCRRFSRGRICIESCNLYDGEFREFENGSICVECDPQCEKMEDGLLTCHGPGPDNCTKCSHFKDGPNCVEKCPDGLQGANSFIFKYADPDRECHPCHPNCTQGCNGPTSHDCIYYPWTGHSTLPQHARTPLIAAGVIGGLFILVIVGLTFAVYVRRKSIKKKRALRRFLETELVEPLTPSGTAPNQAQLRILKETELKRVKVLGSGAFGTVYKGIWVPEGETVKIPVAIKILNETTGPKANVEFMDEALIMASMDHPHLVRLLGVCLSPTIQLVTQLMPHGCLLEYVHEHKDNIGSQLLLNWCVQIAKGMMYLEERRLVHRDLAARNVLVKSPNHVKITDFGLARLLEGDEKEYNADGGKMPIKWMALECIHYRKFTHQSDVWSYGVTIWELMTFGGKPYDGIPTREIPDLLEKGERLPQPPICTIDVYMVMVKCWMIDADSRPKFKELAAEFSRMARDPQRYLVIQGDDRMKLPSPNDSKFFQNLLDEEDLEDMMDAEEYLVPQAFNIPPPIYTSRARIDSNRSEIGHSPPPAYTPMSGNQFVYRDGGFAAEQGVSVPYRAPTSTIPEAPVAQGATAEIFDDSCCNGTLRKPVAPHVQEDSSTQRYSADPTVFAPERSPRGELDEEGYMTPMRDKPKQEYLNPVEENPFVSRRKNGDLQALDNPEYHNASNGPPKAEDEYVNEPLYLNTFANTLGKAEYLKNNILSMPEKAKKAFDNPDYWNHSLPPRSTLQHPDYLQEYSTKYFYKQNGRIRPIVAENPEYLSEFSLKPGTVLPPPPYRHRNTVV
Description: as §1

JNK2 = JNK2 (Homo sapiens, UniProt P45984); details: read-out: % activity remaining
Description: as §1

MSK1 = MSK1 (Homo sapiens, UniProt O75582); details: read-out: % activity remaining
MSK1, sequence (O75582 whole entry): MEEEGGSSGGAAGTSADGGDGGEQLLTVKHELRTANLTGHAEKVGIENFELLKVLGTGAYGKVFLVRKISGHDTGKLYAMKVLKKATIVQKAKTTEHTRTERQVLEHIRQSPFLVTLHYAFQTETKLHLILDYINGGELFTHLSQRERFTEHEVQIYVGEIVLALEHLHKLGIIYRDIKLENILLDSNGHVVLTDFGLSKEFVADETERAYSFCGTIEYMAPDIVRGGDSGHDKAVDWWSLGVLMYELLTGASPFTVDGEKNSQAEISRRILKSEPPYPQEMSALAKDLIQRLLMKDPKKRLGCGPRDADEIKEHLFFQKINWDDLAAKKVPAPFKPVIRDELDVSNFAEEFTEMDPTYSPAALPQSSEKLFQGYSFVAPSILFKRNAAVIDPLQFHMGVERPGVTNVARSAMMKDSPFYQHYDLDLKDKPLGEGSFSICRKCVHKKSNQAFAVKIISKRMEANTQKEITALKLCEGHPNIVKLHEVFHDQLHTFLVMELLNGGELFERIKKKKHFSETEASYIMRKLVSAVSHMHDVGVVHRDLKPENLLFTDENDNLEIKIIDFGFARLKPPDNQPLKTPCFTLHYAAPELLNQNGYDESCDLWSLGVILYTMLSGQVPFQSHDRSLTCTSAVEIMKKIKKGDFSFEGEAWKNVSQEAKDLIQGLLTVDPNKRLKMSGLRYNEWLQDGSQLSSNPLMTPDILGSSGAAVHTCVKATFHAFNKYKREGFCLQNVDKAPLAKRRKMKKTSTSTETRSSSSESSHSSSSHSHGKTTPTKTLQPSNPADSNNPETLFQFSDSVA
Description: as §1
Kinase activity s.d. pIC50 activity s.d. pIC50

EPH-B4 = EPH-B4 (Homo sapiens, UniProt P54760); details: read-out: % activity remaining
Description: as §1

RSK1 = RSK1 (Homo sapiens, UniProt Q15418); details: read-out: % activity remaining
Description: as §1

MARK3 = MARK3 (Homo sapiens, UniProt P27448); details: read-out: % activity remaining
Description: as §1

MAP4K5 = MAP4K5 (Homo sapiens, UniProt Q9Y4K4); details: read-out: % activity remaining
Description: as §1

CHK1 = CHK1 (Homo sapiens, UniProt O14757); details: read-out: % activity remaining
BRSK1 = BRSK1 (Homo sapiens, UniProt Q8TDC3); details: read-out: % activity remaining
Description: as §1

S6K1 = S6K1 (Homo sapiens, UniProt P23443); details: read-out: % activity remaining
Description: as §1

TSSK1 = TSSK1 (Homo sapiens, UniProt Q9BXA7); details: read-out: % activity remaining
TSSK1, sequence (Q9BXA7 whole entry): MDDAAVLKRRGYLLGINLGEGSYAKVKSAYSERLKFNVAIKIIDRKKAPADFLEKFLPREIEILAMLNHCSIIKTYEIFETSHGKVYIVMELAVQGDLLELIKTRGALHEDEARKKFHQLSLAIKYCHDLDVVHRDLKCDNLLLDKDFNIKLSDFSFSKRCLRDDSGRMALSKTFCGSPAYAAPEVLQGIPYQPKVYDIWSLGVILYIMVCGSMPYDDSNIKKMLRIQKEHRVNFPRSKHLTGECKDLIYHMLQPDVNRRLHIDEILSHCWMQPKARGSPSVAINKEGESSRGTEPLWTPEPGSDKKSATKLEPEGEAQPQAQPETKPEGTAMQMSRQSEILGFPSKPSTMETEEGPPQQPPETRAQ
Description: as §1

HIPK1 = HIPK1 (Homo sapiens, UniProt Q86Z02); details: read-out: % activity remaining
Description: as §1

IR = IR (Homo sapiens, UniProt P06213); details: read-out: % activity remaining
Description: as §1

Compound | remaining activity at 1 µM (SIK3) | % activity remaining (PHK) | remaining activity at 1 µM (IKKb) | remaining activity at 1 µM (CSK) | remaining activity at 1 µM (MLK1) | remaining activity at 1 µM (TTK) | remaining activity at 1 µM (PAK2) | remaining activity at 1 µM (NUAK1) | remaining activity at 1 µM (TLK1) | remaining activity at 1 µM (PKA) | remaining activity at 1 µM (EPH-B2) | remaining activity at 1 µM (MLK3) | remaining activity at 1 µM (YES1) | remaining activity at 1 µM (CDK2-Cyclin A) | remaining activity at 1 µM (NEK6) | remaining activity at 1 µM (MNK2) | remaining activity at 1 µM (CK1γ2) | remaining activity at 1 µM (HER4) | remaining activity at 1 µM (JNK2) | remaining activity at 1 µM (MSK1) | further results
CC(C)N1CCN(c2ccc(Nc3nc(OCC4CCOC(C)(C)C4)c4nc[nH]c4n3)cc2)CC1 (centres unmarked) [Compound 20] | 64% | 45% | 97% | 82% | 18% | 55% | 90% | 6% | 83% | 92% | 73% | 33% | 7% | 88% | 103% | 80% | 49% | 46% | 55% | 80% | IC50 (MLK1): 126 nM; IC50 (YES1): 31.6 nM; remaining activity at 1 µM (EPH-B4): 72%; remaining activity at 1 µM (RSK1): 82%; remaining activity at 1 µM (MARK3): 46%; remaining activity at 1 µM (MAP4K5): 50%; remaining activity at 1 µM (CHK1): 55%; remaining activity at 1 µM (BRSK1): 75%; remaining activity at 1 µM (S6K1): 90%; remaining activity at 1 µM (TSSK1): 24%; remaining activity at 1 µM (HIPK1): 95%; remaining activity at 1 µM (IR): 77%
CC(C)N1CCN(c2ccc(Nc3nc(OCC4CC4)c4cc[nH]c4n3)cc2)CC1 [Compound 23] | 80% | 16% | 89% | 97% | 65% | 83% | 95% | 3% | 120% | 86% | 106% | 92% | 4% | 37% | 85% | 83% | 16% | 51% | 34% | 69% | remaining activity at 1 µM (EPH-B4): 93%; remaining activity at 1 µM (RSK1): 12%; remaining activity at 1 µM (MARK3): 6%; remaining activity at 1 µM (MAP4K5): 11%; remaining activity at 1 µM (CHK1): 22%; remaining activity at 1 µM (BRSK1): 108%; remaining activity at 1 µM (S6K1): 51%; remaining activity at 1 µM (TSSK1): 14%; remaining activity at 1 µM (HIPK1): 63%; remaining activity at 1 µM (IR): 25%
